The test system of test [1] is HepG2, HUVEC, PaCA-2, MDA-MB-231, MCF-7, T24, AsPc-1, Panc-1. The experiment in a line: Cell Viability Assay (MTT), tumor cells with MLB007R1 polarized macrophages. It counts as cell-based, human. The settings on record: for cell death: 60 µg/ml, all tumor models. From the text:
The following tumor models and cell lines have been used to proof the anti-tumoral properties of the derivatives of the invention: • Diagram A: HepG2 (human liver cancer cells), • Diagram B: HUVEC (human umbilical vein endothelial cells, • Diagram C: PaCA-2 (human pancreatic cancer cells), • Diagram D: MDA-MB-231 (highly aggressive, invasive and poorly differentiated triple-negative human breast cancer cells), • Diagram E: MCF-7 (human breast cancer cells), • Diagram F: T24 (human urinary bladder cancer cells), • Diagram G: AsPc-1 (human pancreatic tumor cells) and • Diagram H: Panc-1 (human pancreatic cancer cells).
In the examples, the resveratrol derivative MLB007R1 was applied at concentrations of 0 µg/ml, 10 µg/ml, 20 µg/ml, 40 µg/ml and 60 µg/ml. As a control, an underivatized agent was used at a concentration of 60 µg/ml. The dead cells were measured in percentage after 0, 12, 24 and 36 hours.
Tumor cell lines HUVEC (human umbilical vein endothelial cells), paCA-2 (human pancreatic cancer cells), MDA-MB-231 (highly aggressive, invasive and poorly differentiated triple-negative breast cancer cells), HepG2 (human liver cancer cells), MCF-7 (breast cancer cells), T24 (human urinary bladder cancer cells), AsPc-1 (human pancreatic tumor cells), Panc-1 (human pancreatic cancer cells) were seeded in 96-well plates ([…]) and divided into two groups: the untreated control group and the active compound resveratrol derivative treated group. Cells in the normal group were incubated under normal growth conditions. In the resveratrol derivative (MLB007R1) treated group, the cells were pre-incubated with differentiated and polarized macrophages (5x10^5 cells/well) for 24 hours with different final concentrations of the resveratrol derivative.
Wells were then washed three times with phosphate buffered saline (PBS) and incubated again for 4 hours with […] RPMI 1640 containing 10% fetal bovine serum. The medium was then replaced with fresh medium serially incubated with different concentrations of the lead compound and incubated with the macrophages, and the plates were incubated for 12, 24, and 36 hours. The medium containing the resveratrol derivative polarized macrophages was replaced every 12 h with freshly prepared medium. Wells were then washed three times with PBS and incubated again for 4 h, adding […] of RPMI 1640 and […] of MTT solution (5 mg/mL). After removal of the culture medium, […] of DMSO was added to dissolve the precipitate, and the absorbance at 570 nm of the resulting solutions was measured using a CODA Automated EIA Analyzer (Bio-Rad Laboratories, Hercules, CA, USA).
The cytotoxicity of the resveratrol derivative compound was evaluated on all cancer cell lines using the MTT method.

In test [2] the test system is ovarian cancer cells (cell line A2780). The experiment in a line: Viability and apoptosis of ovarian cancer cells with polarized macrophages (interference light microscopy, PI). It counts as cell-based, human. The protocol:
Diagrams A and C show as a control the cells after treatment with DMSO.
Diagrams B and D show the cells treated with 60 µg/ml MLB007R1 after 12 h.
The present study explores the response of ovarian cancer cells to MLB007R1. MLB007R1 macrophages inhibited growth and induced death in human ovarian cancer cell lines. In a further course, A2780 cells were co-incubated with MLB007R1 derivative polarized macrophages and treated. MLB007R1 induces cell death and inhibits ovarian cancer cell growth. Treatment of A2780 cells with MLB007R1 induced cell death after 12 hours. Proliferation of A2780 cultures treated with MLB007R1 was analyzed over 12 hours of continuous treatment.
Cells were plated out and 60 µg/ml MLB007R1 treated macrophages were added to the culture medium 12 h after plating out (24 h preincubation period). The percentage of apoptotic cells was determined at the indicated time points by propidium iodide (PI) staining on semipermeabilized cells as previously described. In this assay, apoptotic cells are identified by hypodiploid DNA content resulting from DNA fragmentation. To assess viability, intact cells were harvested, stained with PI, and analyzed for their plasma membrane permeability to PI by flow cytometry. Cell number was determined by interference light microscopy. The ovarian cancer cells (A2780) were incubated with 60µg/ml MLB007R1 concentration treated macrophages. […]

The next test deals with MCF-7 cells. The test can be described thus: Induction of apoptosis assessed by confocal fluorescence microscopy (PI staining). It counts as cell-based, human. Particulars: for cell death: 12h. As for the experimental part:
To confirm the flow cytometry results, the induction of apoptotic cell death by our MLB007R1 compound was examined by confocal fluorescence microscopy. MCF-7 tumor cells were treated with the compound-polarized macrophages (10 000/well) at concentrations of 0, 20, 40, and 60 µg/ml for 12 hours. Induction of apoptotic cell death was accompanied by characteristic ultrastructural changes, such as chromatin condensation, nuclear fragmentation, and collapse of the cell into membrane-bound apoptotic bodies.
Confocal laser scanning microscopy (CLSM). Analysis of apoptosis-like morphological changes was performed on cells grown on coverslips and fixed with 4% paraformaldehyde in PBS (pH 7.4) for 10 minutes at room temperature (RT). After washing in PBS, the samples were stained for nuclear labeling with 2 µg/ml PI and 0.1 mg/ml RNase for 5 minutes at RT. Coverslips were mounted on glass slides in the presence of Glycerol/PBS at a ratio of 4:1 and observed with a LEICA TCS 4D confocal laser scanning microscope equipped with an argon/cripton laser and oil immersion objectives. The excitation and emission wavelengths were 488 and 590 nm, respectively. The images were recorded in pseudocolor.

The test system of a further test is MCF-7, HUVEC, HepG2. The test can be described thus: Determination of cell growth and viability (cell count, trypan blue exclusion). Format: cell-based, human. The protocol:
The tumor models utilized in these experiments are as follows: • Diagram A: MCF-7 (breast cancer cells), • Diagram B: HUVEC (human umbilical vein endothelial cells) and • Diagram C: HepG2 (human liver cancer cells).
Cell growth of an untreated and resveratrol derivative (MLB007R1) treated cell culture was compared. Tumor cell lines (MCF-7 (breast cancer cells), HUVEC (human umbilical vein endothelial cells) and HepG2 (human liver cancer cells)) were cultured in RPMI 1640 cell medium and exposed to 60 µg/ml resveratrol derivative polarized macrophages (10 000/ well). Cell growth, cell cycle disruption and apoptosis were assessed using the trypan blue exclusion method.
Cells were seeded in 24-well tissue culture plates (Falcon) at a concentration of 1×10^5 cells/ml and allowed to adhere overnight. […] Cell growth and viability were assessed every 12 hours. Trypsinized cells were manually counted using a hemocytometer, and cell viability was determined using the trypan blue dye exclusion assay.
Initially, cell number was measured after incubation to 200 000 cells per culture.
The kinetics of cell growth on human MCF-7 breast cancer cells were cultured and measured for 12, 24 and 36 hours in culture medium containing the indicated drug-polarized macrophages. […] Tumor cell viability and cell growth were determined using the trypan blue assay and cell count, respectively. […]

A further test relates to HepG2. The settings on record: after 24 hours at 60 µM; cited from earlier work.

The values that follow come from patent EP4483866A1, “PHARMACEUTICAL COMPOSITIONS FOR THE TREATMENT OR PREVENTION OF CANCER” (Makrolife Biotech GmbH, priority 2023, dated 2025).

SMILES strings stand for the structures.

With `C=COC(=O)COc1ccc(C=Cc2cc(OCC(=O)OC=C)cc(OCC(=O)OC=C)c2)cc1` [MLB007R1, divinyl 2,2'-((5-(4-(2-oxo-2-(vinyloxy)ethoxy)styryl)-1,3-phenylene)bis(oxy))diacetate], the cell death in test [1] (after 12h) was 70-85%; in test [1] (after 24 hours), 85-92%; in test [1] (after 36h), “approximately 96%”; in the test with MCF-7 cells (Diagram B: 20 µg/ml MLB007R1 treated macrophages) it was over 50%; with MCF-7 cells (Diagram C: 20 µg/ml MLB007R1 treated macrophages) it was over 65%; with MCF-7 cells (Diagram D: 60 µg/ml MLB007R1 treated macrophages), over 80%. In test [2] (12 hours of continuous treatment), the “proliferation of A2780 cultures” value is “No further growth occurred”. Also, the “ovarian cancer cells killed by polarized macrophages” value in test [2] (macrophages incubated in 60µg/ml, 12 h) is “more than 80%”. In the test on MCF-7 cells (20 µg/ml (B), 12 hours), the apoptosis induction result was “No to little apoptosis induction”. Also, the “number of apoptotic cells” value in the test on MCF-7 cells (40 (C) and 60 (D) µg/ml, 12 hours) is given as “increased the number of apoptotic cells”. Moreover, the “number of tumor cells” value with MCF-7, HUVEC, HepG2 (60 µg/ml, after 12 hours, polarized macrophages) is listed as “dramatic decrease”. Moreover, in the test with MCF-7, HUVEC, HepG2 (after only 12 hours of incubation), the decreased cell number entry is “more than 90%”.
With `Oc1ccc(C=Cc2cc(O)cc(O)c2)cc1` [resveratrol, 3,4',5-trihydroxy-stilbene, reference compound], the “effect on tumor cells” value in test [1] (control at 60 µg/ml, compared with resveratrol derivative) is “significantly higher”. In addition, the “decreased HepG2 cell number” value in the test on HepG2 is on record as “approximately 70%”.
